Test results from article PMC11969009 (Nature Communications, 2025).
Values joined by “and” are separate entries in the source; they are usually repeats but may differ in a detail not shown here. Equal entries are not always repeated. Where two headings read alike, the source gives them in different places.

Experiments:
CYP2B6 = CYP2B6 (Homo sapiens, UniProt P20813); experiment: biochemical
CYP3A4/5 [1] = experiment: in vitro; settings: human, microsomes
CYP3A4/5 [2] = experiment: in vitro; settings: human, microsomes, pH 7.4, CYP3A4/5 IC50
CYP3A4/5 [3] = settings: human, microsomes
CYP3A4/5 [4] = settings: human, microsomes, pH 7.4
SARS-CoV-2 P2 strain = test system: SARS-CoV-2 P2 strain; set-up: species or system C57BL/6 (WT) mice; settings: mouse, in vivo
[5] = test system: SARS-CoV-2 clinical isolate VIC001; experiment: microbe, parasite or virus in culture; type: cell-based; settings: for EC50: Severe acute respiratory syndrome coronavirus 2, Vero
SARS-CoV-2 PLpro [6] = biological target: T1, SARS-CoV-2 PLpro (Severe acute respiratory syndrome coronavirus 2, UniProt P0DTD1); experiment: cell-based; type: cell-based
SARS-CoV-2 PLpro [7] = biological target: T1, SARS-CoV-2 PLpro; experiment: biochemical; set-up: inhibition of SARS-CoV-2 PLpro, UbRh dose-response replicate value: unit: %; settings: for IC50: IC50 (UbRh) SARS-CoV-2 PLpro
SARS-CoV-2 PLpro [8] = biological target: T1, SARS-CoV-2 PLpro
CYP2C8 = CYP2C8 (Homo sapiens, UniProt P10632); settings: microsomes
[9] = read-out: Antiviral EC50 (plaque assay)

Sequence of CYP2C8 (P10632 whole entry): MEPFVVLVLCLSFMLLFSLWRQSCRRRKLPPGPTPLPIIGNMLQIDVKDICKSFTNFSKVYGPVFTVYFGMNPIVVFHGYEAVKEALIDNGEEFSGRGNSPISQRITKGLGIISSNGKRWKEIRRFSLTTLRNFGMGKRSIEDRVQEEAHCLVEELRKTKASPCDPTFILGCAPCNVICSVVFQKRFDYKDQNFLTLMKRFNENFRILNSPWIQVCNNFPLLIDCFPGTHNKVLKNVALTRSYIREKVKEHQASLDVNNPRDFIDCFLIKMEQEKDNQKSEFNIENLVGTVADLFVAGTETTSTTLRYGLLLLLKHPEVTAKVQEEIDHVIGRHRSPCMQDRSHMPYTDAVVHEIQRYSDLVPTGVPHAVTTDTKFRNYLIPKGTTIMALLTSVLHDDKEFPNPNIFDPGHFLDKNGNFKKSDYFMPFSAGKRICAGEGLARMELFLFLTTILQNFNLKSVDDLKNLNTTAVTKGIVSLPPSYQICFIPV
Sequence of CYP2B6 (P20813 whole entry): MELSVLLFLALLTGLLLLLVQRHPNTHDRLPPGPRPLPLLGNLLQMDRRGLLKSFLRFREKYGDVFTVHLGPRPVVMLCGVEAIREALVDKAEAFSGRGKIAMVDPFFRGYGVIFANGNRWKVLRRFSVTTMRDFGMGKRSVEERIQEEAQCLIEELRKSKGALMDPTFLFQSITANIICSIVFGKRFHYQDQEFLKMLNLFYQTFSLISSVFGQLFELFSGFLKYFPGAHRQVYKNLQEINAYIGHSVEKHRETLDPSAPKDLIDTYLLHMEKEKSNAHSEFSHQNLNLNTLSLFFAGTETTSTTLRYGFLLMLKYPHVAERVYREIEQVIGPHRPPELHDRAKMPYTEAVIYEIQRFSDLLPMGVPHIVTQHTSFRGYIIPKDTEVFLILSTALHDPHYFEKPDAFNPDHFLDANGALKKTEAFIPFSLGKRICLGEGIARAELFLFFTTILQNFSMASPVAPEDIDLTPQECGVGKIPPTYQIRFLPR

`CC(C)(c1ccccc1)N1CCCCC1` [2-phenyl-2-(1-piperidinyl) propane, reference compound] gave an IC50 (CYP2B6) of 8900 nM.

`CC(=O)N1CCN(c2ccc(OCC3COC(Cn4ccnc4)(c4ccc(Cl)cc4Cl)O3)cc2)CC1` (stereo not drawn) [Ketoconazole, reference compound] was tested, and the IC50 shift (CYP3A4/5 [1]; Fold Shift IC50 (-NADPH) / IC50 (+NADPH)) was 0.8, the IC50 (CYP3A4/5 [1]; Time dependent CYP3A4/5 IC50 + NADPH) was 16 nM and the IC50 (CYP3A4/5 [1]; Time dependent CYP3A4/5 IC50 - NADPH) was 13 nM. The IC50 (CYP3A4/5 [2]) was 10 nM, the “Fold Shift IC50 (-NADPH) / IC50 (+NADPH)” value (CYP3A4/5 [3]) was 0.68 and the IC50 (CYP3A4/5 [3]) was 8.4 nM. For the same molecule, the IC50 (CYP3A4/5 [4]) was 11 nM.

For `CC(C)(C)[C@H](NC(=O)C(F)(F)F)C(=O)N1C[C@H]2[C@@H]([C@H]1C(=O)N[C@H](C#N)C[C@@H]1CCNC1=O)C2(C)C` [Nirmatrelvir, nirmatrelvir, reference compound], the “antiviral activity (lung viral burden), mild model” value (SARS-CoV-2 P2 strain) was “no antiviral activity”, the EC50 [5, 9] was over 2000 nM and the EC50 ([5]; read-out: Antiviral EC50 (plaque assay) with Pgp inhibitor) was 530 nM. For the same molecule, the “Ext Data Fig 2f dose response (0 µM = 100)” value (“Ext Data Fig 2f dose response” for short) ([5]; concentration 0.01 µM) was 108.0460 and 101.2658 and 103.7975 and 95.0617 and 93.8272 and 95.6522, the “Ext Data Fig 2f dose response” value ([5]; concentration 0.02 µM) was 90.8046 and 108.8608 and 111.3924 and 104.9383 and 98.7654 and 104.3478 and the “Ext Data Fig 2f dose response” value ([5]; concentration 0.04 µM) was 97.7011 and 96.2025 and 105.0633 and 97.5309 and 90.1235 and 85.5072. The “Ext Data Fig 2f dose response” value ([5]; concentration 0.08 µM) was 93.1034 and 89.8734 and 106.3291 and 109.8765 and 100.0000 and 102.8986 and the “Ext Data Fig 2f dose response” value ([5]; concentration 0.3 µM) was 104.5977 and 108.8608 and 102.5316 and 58.0247 and 83.9506 and 71.0145.

In the case of `CO/N=C(/c1ccc2cc(OC)ccc2c1)C1CCCN(C2CCCC2)C1` (stereo not drawn) [WEHI-P2], the EC50 (SARS-CoV-2 PLpro [6]) is reported as 11000 nM, the “FRET EC50 (cellular)” value (SARS-CoV-2 PLpro [6]) is reported as “micromolar cellular activity” and the “IC50 (UbRh) SARS-CoV-2 PLpro” value (SARS-CoV-2 PLpro [7]) is reported as “submicromolar”. The “inhibition of SARS-CoV-2 PLpro, UbRh dose-response replicate value” (“inhibition of SARS-CoV-2 PLpro” below) (SARS-CoV-2 PLpro [7]; Conc 0.00498 µM) was -15.8303 and -11.7404 and -10.1452 and -13.4396 and 0.4248 and 3.42 and -8.071 and -0.3979, the “inhibition of SARS-CoV-2 PLpro” value (SARS-CoV-2 PLpro [7]; Conc 0.0149 µM) was -13.9221 and -7.6283 and -8.496 and -15.6937 and -2.169 and 1.092 and -11.0387 and -1.093 and the “inhibition of SARS-CoV-2 PLpro” value (SARS-CoV-2 PLpro [7]; Conc 0.0448 µM) was -10.8825 and -7.692 and -10.0063 and -17.0131 and 5.235 and 6.569 and -0.8163 and 5.0409. The “inhibition of SARS-CoV-2 PLpro” value (SARS-CoV-2 PLpro [7]; Conc 3.63 µM) was 108.558 and 106.946 and 112.788 and 102.006 and 101.573 and 101.518 and 102.655, the inhibition at 3.63 µM (SARS-CoV-2 PLpro [7]; Conc 3.63 µM, read-out: inhibition of SARS-CoV-2 PLpro, UbRh dose-response replicate value) was 110% and the “inhibition of SARS-CoV-2 PLpro” value (SARS-CoV-2 PLpro [7]; Conc 98 µM) was 126.525 and 125.26 and 122.237 and 129.703 and 110.886 and 110.306 and 111.038 and 109.523. The “inhibition of SARS-CoV-2 PLpro” value (SARS-CoV-2 PLpro [7]; Conc […]) was 108.844, the IC50 (SARS-CoV-2 PLpro [7]) was 397 nM and the IC50 (SARS-CoV-2 PLpro [7]; Supplementary Fig. 2b) was 645 nM. For the same molecule, the inhibition at […] (SARS-CoV-2 PLpro [7]; read-out: inhibition of SARS-CoV-2 PLpro, UbRh dose-response replicate value) was 127% and 123% and 74.5%, the “Molar Mass (kDa)” value (SARS-CoV-2 PLpro [8]) was 34.0141 kDa and 34.3179 kDa and 34.334 kDa and the “observed molar mass of PLpro (SEC-MALS)” value (SARS-CoV-2 PLpro [8]) was 34.2 kDa. For the same molecule, the EC50 [5, 9] was over 2000 nM.

With quercitin [reference compound] the IC50 (CYP2C8) was 2300 nM.
